Experimental data: patent US5716950A, “Diazacycloalkanealkylsulfonamide derivatives” (Nippon Shoji Kabushiki Kaisha, priority 1994, dated 1998)
Read-outs that look alike come from different tables or passages of the source.

Assays:
male ICR mice = test: Toxicity Test (mouse acute toxicity, minimum lethal dose); format: in vivo; settings: po, observed for 24 hours, head prints (10 mg/kg-po)
Excerpt: The test compounds were orally administered to male ICR mice (weighing to 30 g) after fasting overnight. […] The results were expressed by minimum lethal dose. Toxicity of any compounds of the present invention were weaker than that of ketotifen which was a reference compound.

[1] = tested on: passive cutaneous anaphylaxis (PCA); test: Activity of suppressing passive cutaneous anaphylaxis (PCA); format: in vivo, Male Wistar rats
Method: Test compounds were examined on their antiallergic activities. […] After 48 hours, 1.0 ml of 0.5 % Evans Blue saline solution containing DNP.BSA (1 mg in protein) was injected through the tail vein to induce allergic reaction. After 30 minutes, the rats were sacrificed by bleeding and the skin of back where dye was leaked out was flayed and put it into 20 ml test tube with ground stopper. Thereto was added 1.0 ml of 1N KOH aqueous solution and then it was allowed to stand at 37° C. in incubator overnight for lysing. To this solution was added 8.3 ml of a mixture of acetone and 0.6N phosphoric acid (13:5) and the mixture was mixed well and then was filtered to remove the insoluble materials.
The test compounds were administered orally 1 hour before the antigen challenge. Suppression rate was expressed by percentage to the value in control where 0.5% aqueous methylcellulose solution was orally administered.

[2] = tested on: extracted ileum (histamine contraction); test: Antihistaminic activity: suppression of histamine-induced contraction of extracted ileum; design: species or system Female Hartley guinea pig; settings: histamine 3×10^-7 M; guinea pig ileum; 50% suppression of contraction; read-out: anti-His in extracted ileum EC50
Method: Female Hartley guinea pig (weighing 500 to 650 g) were sacrificed and the ileum (length of about 10 to 25 cm) was extracted from the ileocecum to prepare a specimen (length of 3 cm). […] After allowing to stand for 60 minutes to make the specimen stable, a histamine (3×10^-7 M) was applied to the specimen at single application. Contraction of the specimen was determined and recorded using isotonic transducer. After repeating application of a histamine to make the contraction constant, a diluted solution of the test compound was applied. Three minutes after the application, a histamine was then added and an activity of suppressing contraction was examined.

[3] = tested on: mouse biphasic allergic dermal reaction; test: Mouse Biphasic Allergic Dermal Reaction; format: in vivo, Female Balb/c mice; settings: for inhibition in vivo at 0.1 mg/kg / inhibition in vivo at 1 mg/kg: Mus musculus, oral
Method: Female Balb/c mice (weighing 18 to 25 g) were subjected to passive sensitization by intravenous administration of 1 ml of anti-DNP monoclonal IgE antibody showing 1:1024 of antibody titer. 24 hours after the sensitization, 25 μl of 0.15% dinitrofluorobenzene (DNFB) were applied to both sides of right and left auricles of mouse for inducing allergic reactions. Thickness of auricles were measured using Dial Thickness Gauge before the challenge with DNFB, and 1 and 24 hours after the challenge. And then, increase in thickness of auricles at 1 hour after the challenge (edema caused by immediate allergic reaction) and that at 24 hours after the challenge (edema caused by late allergic reaction) were calculated against the thickness of auricles before the challenge with DNFB, respectively.
Suppression rate was expressed by relative ratio (%) to the value in control in which a solvent was administered.
Test compounds, diphenhydramine which is a existing classical antihistamic drug, amlexanox which is an antiallergic drug and dexamethasone which is a steroidal drug were administered orally (partly intraperitoneally) once before antigen challenge.
The above test was performed by using a mouse biphasic allergic dermal reaction model which was a new model [see, Sakurai T, Inagaki, N. and Nagai, H Life Sci., 54, PL291-295 (1994)]. In this model, the immediate allergic reaction was induced by mediator release from mast cell at 1 hour after the challenge, and the late allergic reaction with inflammatory cells such as eosinophil (edema after 24 hours) was induced after 24 hours from the challenge.

[4] = Rattus norvegicus, po, 1 h, 10 mg/kg-po, 1 hour before antigen challenge, read-out: % suppression of rat PCA
[5] = 1 h, read-out: immediate edema (1 hr) suppression (%)
[6] = 24 h, read-out: late edema (24 hr) suppression (%)

Row | Compound | mouse acute toxicity (lethal dose) (male ICR mice) | inhibition in vivo at 10 mg/kg [1, 4] | EC50 [2] | further results
1 | CNS(=O)(=O)CCCCCCN1CCN(C(c2ccc(F)cc2)c2ccccn2)CC1 (stereo not drawn) [Example 26] | > 500 mg/kg | 71% | 300 nM | 
2 | CN(C)S(=O)(=O)CCCCCCN1CCN(C(c2ccccc2)c2ccccn2)CC1 (stereo not drawn) [Example 67] | > 500 mg/kg | 84.1% | 420 nM | 
3 | O=S(=O)(CCCCCCN1CCN(C(c2ccccc2)c2ccc(F)cc2)CC1)NC1CC1 (stereo not drawn) [Example 124] | > 500 mg/kg | 88.4% | 200 nM | 
4 | O=S(=O)(CCCCCN1CCN(C(c2ccccc2)c2ccc(Cl)cc2)CC1)NC1CCCC1 (stereo not drawn) [Example 136] | > 500 mg/kg | 80.2% | 540 nM | 
5 | CC(C)NS(=O)(=O)CCCCCCN1CCN(C(c2ccccc2)c2ccc(Cl)cc2)CC1 (stereo not drawn) [Example 43] | > 500 mg/kg | 86.5% | 690 nM | 
6 | CCNS(=O)(=O)CCCCCCCCN1CCN(C(c2ccccc2)c2ccc(Cl)cc2)CC1 (stereo not drawn) [Example 108] | > 500 mg/kg | 82.2% | 680 nM | 
7 | CN(C)S(=O)(=O)CCCCCCCCN1CCN(C(c2ccccc2)c2ccccc2F)CC1 (stereo not drawn) [Example 69] | > 500 mg/kg | 88.3% | 150 nM | 
8 | CCCNS(=O)(=O)CCCCCCN1CCN(C(c2ccc(F)cc2)c2ccccn2)CC1 (stereo not drawn) [Example 39] | > 500 mg/kg | 83.8% | 810 nM | 
9 | CNS(=O)(=O)CCCCCCN1CCN(C(c2ccccc2)c2ccc(Cl)cc2)CC1 (stereo not drawn) [Example 21] | > 500 mg/kg | 89.7% | 510 nM | 
10 | CN(C)S(=O)(=O)CCCCCCN1CCN(C(c2ccncc2)c2ccc(Cl)cc2)CC1 (stereo not drawn) [Example 66] | > 500 mg/kg | 82.8% | 420 nM | 
11 | CC(C)NS(=O)(=O)CCCCCCCCN1CCN(C(c2ccc(F)cc2)c2ccccn2)CC1 (stereo not drawn) [Example 48] | > 500 mg/kg | 83.8% | 350 nM | 
12 | NS(=O)(=O)CCCCCCCCN1CCN(C(c2ccccc2)c2ccc(Cl)cc2)CC1 (stereo not drawn) [Example 4] | > 500 mg/kg | 89% | 650 nM | 
13 | NS(=O)(=O)CCCCCCN1CCN(C(c2ccccc2)c2ccc(Cl)cc2)CC1 (stereo not drawn) [Example 3] | > 500 mg/kg | 95.2% | 760 nM | 
14 | O=S(=O)(CCCCCCCCN1CCN(C(c2ccccc2)c2ccc(Cl)cc2)CC1)NC1CC1 (stereo not drawn) [Example 116] | > 500 mg/kg | 70.2% | 120 nM | 
15 | CCCNS(=O)(=O)CCCCCCCCCCN1CCN(C(c2ccc(F)cc2)c2ccccn2)CC1 (stereo not drawn) [Example 42] | > 500 mg/kg | 80.2% | 330 nM | 
16 | CN(C)S(=O)(=O)CCCCCCN1CCN(C(c2ccccc2)c2ccc(Cl)cc2)CC1 (stereo not drawn) [Example 64] | > 500 mg/kg | 72.5% | 360 nM | 
17 | NS(=O)(=O)CCCCCCN1CCN(C(c2ccccc2)c2ccc(Cl)cc2)CC1 (stereo not drawn) [Example 153, potassium 6-[[4-(4-chlorophenyl)phenylmethyl]-1-piperazinyl]hexylsulfonamide] | > 500 mg/kg |  |  | inhibition in vivo at 0.1 mg/kg [3, 5]: 24%; inhibition in vivo at 1 mg/kg [3, 5]: 56%; inhibition in vivo at 0.1 mg/kg [3, 6]: 24%; inhibition in vivo at 1 mg/kg [3, 6]: 48%; % suppression of rat PCA ([1]; 10 mg/kg-po, 1 hour before antigen challenge): 86.2%
18 | O=S(=O)(CCCCCCCN1CCN(C(c2ccccc2)c2ccc(Cl)cc2)CC1)NC1CCCC1 (stereo not drawn) [Example 137] | > 500 mg/kg | 75.8% | 2200 nM | 

Row | Compound | mouse acute toxicity (lethal dose) (male ICR mice) | inhibition in vivo at 10 mg/kg [1, 4] | EC50 [2] | further results
19 | NS(=O)(=O)CCCCCCCCCCN1CCN(C(c2ccccc2)c2ccc(Cl)cc2)CC1 (stereo not drawn) [Example 104] | > 500 mg/kg | 86.7% | 6800 nM | 
20 | O=S(=O)(CCCCCCCCN1CCN(C(c2ccc(F)cc2)c2ccccn2)CC1)NC1CC1 (stereo not drawn) [Example 57] |  | 90.6% | 390 nM | inhibition in vivo at 1 mg/kg [3, 5]: 31.6%; inhibition in vivo at 0.1 mg/kg [3, 6]: 7.7%; inhibition in vivo at 1 mg/kg [3, 6]: 46.2%; suppression of the late allergic reaction (in words) ([3]; edema after 24 hours): showed strong activity of suppressing the late allergic reaction
21 | O=S(=O)(CCCCN1CCN(C(c2ccccc2)c2ccc(Cl)cc2)CC1)NC1CCCC1 (stereo not drawn) [Example 135] | > 500 mg/kg | 74.4% | 1100 nM | 
22 | CN1CCC(=C2c3ccccc3CC(=O)c3sccc32)CC1 [ketotifen, reference compound] | 500 mg/kg |  |  | inhibition in vivo at 2 mg/kg ([1]; Rattus norvegicus, po, 1 h, read-out: % suppression of rat PCA): 47.4 to 73.6%
23 | CCNS(=O)(=O)CCCCCCN1CCN(C(c2ccc(F)cc2)c2ccccn2)CC1 (stereo not drawn) [Example 32] | > 500 mg/kg | 86.8% | 840 nM | 
24 | CCNS(=O)(=O)CCCCCCN1CCN(C(c2ccccc2)c2ccc(Cl)cc2)CC1 (stereo not drawn) [Example 29] | > 500 mg/kg | 95.7% | 750 nM | 
25 | COc1cc(NS(=O)(=O)CCCCCCN2CCN(C(c3ccccc3)c3ccccc3)CC2)cc(OC)c1OC [Example 99] | > 500 mg/kg | 72.1% | 1300 nM | 
26 | CNS(=O)(=O)CCCCCN1CCN(C(c2ccccc2)c2ccc(Cl)cc2)CC1 (stereo not drawn) [Example 106] |  | 90.3% | 400 nM | 
27 | CC(C)NS(=O)(=O)CCCCCN1CCN(C(c2ccc(F)cc2)c2ccccn2)CC1 (stereo not drawn) [Example 45] | > 500 mg/kg | 84% | 740 nM | 
28 | O=S(=O)(CCCCCCN1CCN(C(c2ccccc2)c2ccc(Cl)cc2)CC1)NCCO (stereo not drawn) [Example 101] | > 500 mg/kg | 88% | 810 nM | 
29 | CCNS(=O)(=O)CCCCCN1CCN(C(c2ccc(F)cc2)c2ccccn2)CC1 (stereo not drawn) [Example 31] | > 500 mg/kg | 87.2% | 770 nM | 
30 | CN(C)S(=O)(=O)CCCCCCCN1CCN(C(c2ccccc2)c2ccc(Cl)cc2)CC1 (stereo not drawn) [Example 150] | > 500 mg/kg | 89.1% | 350 nM | 
31 | CN(C)S(=O)(=O)CCCCCCN1CCN(C(c2ccc(F)cc2)c2ccc(F)cc2)CC1 [Example 65] | > 500 mg/kg | 74.7% | 430 nM | 
32 | O=S(=O)(CCCCCCCN1CCN(C(c2ccccc2)c2ccc(Cl)cc2)CC1)NC1CC1 (stereo not drawn) [Example 115] | > 500 mg/kg | 73.2% | 790 nM | 
33 | O=S(=O)(CCCCCCCN1CCN(C(c2ccccc2)c2ccc(Cl)cc2)CC1)NC1CCC1 (stereo not drawn) [Example 129] | > 500 mg/kg | 92.2% | 1800 nM | 
34 | O=S(=O)(CCCCCCN1CCN(C(c2ccccc2)c2ccc(Cl)cc2)CC1)NC1CCCC1 (stereo not drawn) [Example 59] | > 500 mg/kg | 96.4% | 2900 nM | 
35 | CNS(=O)(=O)CCCCCN1CCN(C(c2ccccc2)c2ccccc2)CC1 [Example 19] |  | 78% | 460 nM | 
